Data: PubChem BioAssay AID258 (DTP/NCI, 2004)
Where “and” joins values, the source holds several entries; their conditions need not be identical. Equal values may be shown once. Inconclusive results and toxic doses are left out.

Test system: CD2F1 mice, L1210 leukemia sc, survival T/C
Assay: NCI In Vivo Anticancer Drug Screen. Data for tumor model L1210 Leukemia (subcutaneous) in CD2F1 (CDF1) mice
Settings: endpoint: median survival time, higher = longer survival
Outline: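 Mice with transplanted tumor dosed; survival/tumor size read; T/C vs vehicle controls.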

[1] = dose: 6.0 mg/kg/injection, schedule: Q01DX009 (sc), vehicle: saline

How did the T/C (dose: 2.5 mg/kg/injection, schedule: Q01DX009 (ip), vehicle: saline) turn out when `O=c1[nH]cc(F)c(=O)[nH]1` was run?
Its T/C is 109 % of control and 94 % of control.

What about the T/C (dose: 5.0 mg/kg/injection, schedule: Q01DX009 (ip), vehicle: saline) of the same molecule?
The T/C was 101 % of control and 106 % of control.

What about the T/C (dose: 6.0 mg/kg/injection, schedule: Q01DX009 (ip), vehicle: saline) of the same molecule?
Its T/C is 111 % of control.

And the T/C [1]?
Its T/C is 110 % of control.

What about the T/C (dose: 6.25 mg/kg/injection, schedule: Q01DX009 (ip), vehicle: saline) of the same molecule?
Its T/C is 93 % of control.

And the T/C (dose: 10.0 mg/kg/injection, schedule: Q01DX009 (ip), vehicle: saline)?
Its T/C is 108 % of control and 114 % of control and 117 % of control.

And the T/C (dose: 10.0 mg/kg/injection, schedule: Q01DX009 (sc), vehicle: saline)?
Its T/C is 102 % of control.

And the T/C (dose: 12.5 mg/kg/injection, schedule: Q01DX006 (ip), vehicle: saline)?
The T/C was 105 % of control.

And the T/C (dose: 12.5 mg/kg/injection, schedule: Q01DX009 (ip), vehicle: saline)?
The T/C was 112 % of control.

And the T/C (dose: 12.5 mg/kg/injection, schedule: Q02DX005 (ip), vehicle: saline)?
Its T/C is 111 % of control.

What about the T/C (dose: 16.0 mg/kg/injection, schedule: Q01DX009 (sc), vehicle: saline) of the same molecule?
The T/C was 150 % of control.

What about the T/C (dose: 20.0 mg/kg/injection, schedule: Q01DX009 (sc), vehicle: saline) of the same molecule?
The T/C was 118 % of control.

What about the T/C (dose: 24.0 mg/kg/injection, schedule: Q01DX009 (ip), vehicle: saline) of the same molecule?
Its T/C is 155 % of control.

What about the T/C (dose: 24.0 mg/kg/injection, schedule: Q01DX009 (sc), vehicle: saline) of the same molecule?
Its T/C is 152 % of control and 168 % of control.

And the T/C (dose: 25.0 mg/kg/injection, schedule: Q02DX005 (ip), vehicle: saline)?
The T/C was 112 % of control.

And the T/C (dose: 25.0 mg/kg/injection, schedule: Q04DX003 (ip), vehicle: saline)?
Its T/C is 100 % of control.

And the T/C (dose: 26.7 mg/kg/injection, schedule: Q01DX009 (sc), vehicle: saline)?
Its T/C is 152 % of control.

What about the T/C (dose: 40.0 mg/kg/injection, schedule: Q01DX009 (ip), vehicle: saline) of the same molecule?
Its T/C is 104 % of control and 114 % of control and 94 % of control.

What about the T/C (dose: 40.0 mg/kg/injection, schedule: Q01DX009 (sc), vehicle: saline) of the same molecule?
The T/C was 151 % of control and 160 % of control.

And the T/C (dose: 48.0 mg/kg/injection, schedule: Q01DX009 (ip), vehicle: saline)?
The T/C was 102 % of control.

And the T/C (dose: 48.0 mg/kg/injection, schedule: Q01DX009 (sc), vehicle: saline)?
The T/C was 117 % of control.

What about the T/C (dose: 50.0 mg/kg/injection, schedule: Q01DX001 (ip), vehicle: saline) of the same molecule?
The T/C was 111 % of control.

And the T/C (dose: 50.0 mg/kg/injection, schedule: Q01DX009 (ip), vehicle: saline)?
Its T/C is 150 % of control.

What about the T/C (dose: 50.0 mg/kg/injection, schedule: Q04DX003 (ip), vehicle: saline) of the same molecule?
Its T/C is 100 % of control.

And the T/C (dose: 60.0 mg/kg/injection, schedule: Q01DX009 (sc), vehicle: saline)?
Its T/C is 161 % of control.

And the T/C (dose: 65.0 mg/kg/injection, schedule: Q01DX Z (sc), vehicle: saline)?
Its T/C is 112 % of control.

And the T/C (dose: 80.0 mg/kg/injection, schedule: Q01DX009 (ip), vehicle: saline)?
Its T/C is 103 % of control.

And the T/C (dose: 96.0 mg/kg/injection, schedule: Q01DX009 (ip), vehicle: saline)?
Its T/C is 91 % of control.

And the T/C (dose: 96.0 mg/kg/injection, schedule: Q01DX009 (sc), vehicle: saline)?
The T/C was 88 % of control.

What about the T/C (dose: 100.0 mg/kg/injection, schedule: Q01DX001 (ip), vehicle: saline) of the same molecule?
The T/C was 122 % of control.

What about the T/C (dose: 100.0 mg/kg/injection, schedule: Q02DX005 (ip), vehicle: saline) of the same molecule?
Its T/C is 175 % of control.

What about the T/C (dose: 100.0 mg/kg/injection, schedule: Q04DX003 (ip), vehicle: saline) of the same molecule?
The T/C was 155 % of control.

What about the T/C (dose: 108.0 mg/kg/injection, schedule: Q01DX Z (sc), vehicle: saline) of the same molecule?
Its T/C is 112 % of control.

What about the T/C (dose: 180.0 mg/kg/injection, schedule: Q01DX Z (sc), vehicle: saline) of the same molecule?
The T/C was 108 % of control.

What about the T/C (dose: 400.0 mg/kg/injection, schedule: Q01DX001 (ip), vehicle: saline) of the same molecule?
Its T/C is 122 % of control.

With `Nc1nc2c(ncn2C2CC(O)C(CO)O2)c(=O)[nH]1` (stereo not given) as the molecule, how does the T/C (dose: 31.0 mg/kg/injection, schedule: Q01DX Z (sc), vehicle: water) read?
The T/C was 100 % of control.

How did the T/C (dose: 0.25 mg/kg/injection, schedule: Q01DX009 (ip), vehicle: saline) turn out when `COc1cccc2c1C(=O)c1c(O)c3c(c(O)c1C2=O)C[C@@](O)(C(=O)CO)C[C@@H]3OC1CC(N)C(O)C(C)O1` (stereo not given in full) was run?
Its T/C is 101 % of control and 98 % of control.

And the T/C (dose: 0.25 mg/kg/injection, schedule: Q01DX009 (sc), vehicle: saline)?
Its T/C is 98 % of control.

What about the T/C (dose: 0.5 mg/kg/injection, schedule: Q01DX009 (ip), vehicle: saline) of the same molecule?
Its T/C is 103 % of control and 107 % of control and 98 % of control.

And the T/C (dose: 0.5 mg/kg/injection, schedule: Q01DX009 (sc), vehicle: saline)?
Its T/C is 101 % of control.

What about the T/C (dose: 1.0 mg/kg/injection, schedule: Q01DX009 (ip), vehicle: saline) of the same molecule?
The T/C was 100 % of control and 106 % of control and 123 % of control.

And the T/C (dose: 1.0 mg/kg/injection, schedule: Q01DX009 (sc), vehicle: saline)?
Its T/C is 110 % of control.

And the T/C (dose: 2.0 mg/kg/injection, schedule: Q01DX009 (ip), vehicle: saline)?
The T/C was 111 % of control and 115 % of control and 123 % of control.

What about the T/C (dose: 2.0 mg/kg/injection, schedule: Q01DX009 (sc), vehicle: saline) of the same molecule?
The T/C was 117 % of control and 120 % of control.

And the T/C (dose: 2.5 mg/kg/injection, schedule: Q01DX009 (sc), vehicle: saline)?
The T/C was 114 % of control.

And the T/C (dose: 3.0 mg/kg/injection, schedule: Q01DX009 (sc), vehicle: saline)?
The T/C was 116 % of control.

And the T/C (dose: 3.5 mg/kg/injection, schedule: Q01DX009 (sc), vehicle: saline)?
The T/C was 120 % of control.

And the T/C (dose: 4.0 mg/kg/injection, schedule: Q01DX009 (ip), vehicle: saline)?
Its T/C is 110 % of control and 92 % of control and 97 % of control.

And the T/C (dose: 5.0 mg/kg/injection, schedule: Q01DX009 (sc), vehicle: saline)?
The T/C was 116 % of control.

And the T/C [1]?
The T/C was 102 % of control.

What about the T/C (dose: 8.0 mg/kg/injection, schedule: Q01DX009 (sc), vehicle: saline) of the same molecule?
Its T/C is 113 % of control and 89 % of control.

Which results are given for `CC(=O)OC1COC(NC(=O)N(CCCl)N=O)C(OC(C)=O)C1OC(C)=O` (stereo not given)?
T/C (dose: 0.75 mg/kg/injection, schedule: Q01DX009 (ip), vehicle: saline with Tween-80): 104 % of control; T/C (dose: 1.5 mg/kg/injection, schedule: Q01DX009 (ip), vehicle: saline with Tween-80): 102 % of control; T/C (dose: 3.0 mg/kg/injection, schedule: Q01DX009 (ip), vehicle: saline with Tween-80): 102 % of control and 122 % of control; T/C (dose: 12.0 mg/kg/injection, schedule: Q01DX009 (ip), vehicle: saline with Tween-80): 158 % of control and 297 % of control

What does the source list for `Nc1nc(N)c2[nH]cnc2n1`?
T/C (dose: 20.0 mg/kg/injection, schedule: Q01DX Z (sc), vehicle: steriod suspending solution): 106 % of control; T/C (dose: 40.0 mg/kg/injection, schedule: Q01DX Z (sc), vehicle: steriod suspending solution): 100 % of control; T/C (dose: 80.0 mg/kg/injection, schedule: Q01DX Z (sc), vehicle: steriod suspending solution): 100 % of control; T/C (dose: 160.0 mg/kg/injection, schedule: Q01DX Z (sc), vehicle: steriod suspending solution): 100 % of control

For `[Cl][Pt+2][Cl].[NH-]CC1(C[NH-])CCC1`, which T/C (dose: 3.12 mg/kg/injection, schedule: Q01DX009 (ip), vehicle: Klucel (hydroxypropylcellulose) (HPC)) is on record?
Its T/C is 158 % of control.

What does the source list for `CN1CCN(c2ccc3nc(-c4ccc5nc(-c6ccc(O)cc6)[nH]c5c4)[nH]c3c2)CC1`?
T/C (dose: 4.7 mg/kg/injection, schedule: Q03HX024 (ip), vehicle: saline): 102 % of control; T/C (dose: 9.4 mg/kg/injection, schedule: Q03HX024 (ip), vehicle: saline): 107 % of control; T/C (dose: 14.0 mg/kg/injection, schedule: Q03HX008 (ip), vehicle: saline): 102 % of control; T/C (dose: 18.75 mg/kg/injection, schedule: Q03HX024 (ip), vehicle: saline): 110 % of control; T/C (dose: 28.0 mg/kg/injection, schedule: Q03HX008 (ip), vehicle: saline): 113 % of control; T/C (dose: 37.5 mg/kg/injection, schedule: Q03HX024 (ip), vehicle: saline): 119 % of control; T/C (dose: 37.5 mg/kg/injection, schedule: Q04DX003 (ip), vehicle: saline): 101 % of control; T/C (dose: 75.0 mg/kg/injection, schedule: Q04DX003 (ip), vehicle: saline): 107 % of control; T/C (dose: 112.0 mg/kg/injection, schedule: Q01DX001 (ip), vehicle: suspension in saline): 104 % of control; T/C (dose: 150.0 mg/kg/injection, schedule: Q04DX003 (ip), vehicle: saline): 110 % of control

With `COc1ccc2[nH]c3ccc4cc[n+](CCN5CCC(C6CCN(CC[n+]7ccc8ccc9[nH]c%10ccc(OC)cc%10c9c8c7)CC6)CC5)cc4c3c2c1` as the molecule, how does the T/C (dose: 6.9 mg/kg/injection, schedule: Q01DX009 (ip), vehicle: water) read?
Its T/C is 104 % of control.

And the T/C (dose: 11.5 mg/kg/injection, schedule: Q01DX009 (ip), vehicle: water)?
Its T/C is 107 % of control.

And the T/C (dose: 12.5 mg/kg/injection, schedule: Q01DX009 (ip), vehicle: Klucel (hydroxypropylcellulose) (HPC))?
Its T/C is 204 % of control and 93 % of control.

What about the T/C (dose: 32.0 mg/kg/injection, schedule: Q01DX009 (ip), vehicle: water) of the same molecule?
Its T/C is 107 % of control.

And the T/C (dose: 50.0 mg/kg/injection, schedule: Q01DX009 (ip), vehicle: Klucel (hydroxypropylcellulose) (HPC))?
Its T/C is 340 % of control.
